Experimental data from PubChem BioAssay AID2060508 (Molecular Pharmacology Branch, DTP, NCI, 2025).

These compounds were tested on 454973-116-R2-J3-PDC spheroids, viability, % test/control (assay: Anticancer human tumor 454973-116-R2-J3-PDC patient-derived pancreatic carcinoma cell line growth inhibition [GQUAD]). Details: second compound 0.316 µM; first compound 1 µM; hits give low values; spheroids with HUVEC and MSC.
Description: DNA G-quadruplex Stabilizer Agents in Combinations in Complex Spheroids
A high-throughput screen of multi-cell type tumor spheroids was designed to identify active combinations of DNA G-quadruplex stabilizer agents and targeted small molecules. Complex spheroids include a stromal component modeled by human endothelial cells (HUVEC) and fibroblasts modeled by human mesenchymal stem cells (MSCs). The concentration ranges selected for each drug and investigational agent were based upon clinically achievable concentrations if the clinical Cmax of the agent was known.
Compounds. The drugs and investigational agents: pidnarulex (CX-5461; NSC782164), APTO-253 (NSC789042), BRACO-19 (NSC847499), peposertib (NSC802822), ceralasertib (NSC780249), elimusertib (NSC800525), camonsertib (NSC841442), AZD-1390 (NSC803789), olaparib (NSC753686), talazoparib (NSC767125), ART-558 (NSC835418), sotorasib (NSC818433), MRTX-1133 (NSC836407), SN-38 (NSC673596), topotecan (NSC609699), etoposide (NSC141540), doxorubicin (NSC123127), gemcitabine (NSC613327), 5-fluorouracil (NSC19893), paclitaxel (NSC125973), vemurafenib (NSC761431), panobinostat (NSC761190), R-306465 (JNJ-16241199; NSC773264), adavosertib (NSC754352), TP-3654 (NSC805149), carboplatin (NSC241240), KSQ-4279 (NSC840948), and staurosporine (NSC755774) were obtained from the National Cancer Institute (NCI) Developmental Therapeutics Program Chemical Repository (34). The FDA-approved anticancer drug set is available from the NCI Developmental Therapeutics Program. […] The stock solutions were prepared in dimethyl sulfoxide (DMSO, Sigma-Aldrich, St. Louis, MO, cat. D2650) at 800-fold the tested concentration and stored at -70 degrees C prior to their use. All drugs and investigational agents were tested over a range starting from a high concentration at or near the clinical Cmax and decreasing in half-log increments. If the clinical Cmax for an agent had not been determined, the highest concentration tested was 10 microM.
2.3 Cell Culture. All cells were maintained in an incubator at 37 degrees C and 5% CO2 with 95% humidity. The PDC lines were cultured according to standard operating procedures established by the NCI PDMR. All PDCs were thawed and cultured in Matrigel-coated flasks prepared with a working solution of 1X Ham's F-12 nutrient mix, without supplementation (Invitrogen, cat. 11765054), 100 U/mL penicillin-streptomycin (Invitrogen, cat. 15140122), and 2.5% Matrigel (Corning Inc., cat. 354248) for the first three passages. The 857933-349-R-J2-PDC line was cultured in 6C/Colon 1B media, which includes advanced DMEM/F-12 (Thermo Fisher Scientific, cat. 12634028), 10 mM HEPES (Thermo Fisher Scientific, cat. 15630080), 1X GlutaMAX supplement (Thermo Fisher Scientific, cat. 35050061), 0.1 mg/mL primocin (InvivoGen, cat. ant-pm-2), 10% defined fetal bovine serum, heat inactivated (HyClone Laboratories Inc., cat. SH30070.03HI), 50% L-WRN conditioned media (ATCC, cat. CRL-3276), 1.25 mM N-Acetyl-L-cysteine (Sigma-Aldrich, cat. A9165), 10 mM nicotinamide (Sigma-Aldrich, cat. N0636), 1X B-27 supplement (Thermo Fisher Scientific, cat. 17504044), 1X N-2 supplement (Thermo Fisher Scientific, cat. 17502048), 10 microM Y-27632 dihydrochloride (Tocris Bioscience, cat. 1254), and 50 ng/mL human EGF recombinant protein (Thermo Fisher Scientific, cat. PHG0311). The 485176-168-R4-J1-PDC line was cultured in Panc media, which includes all 6C/Colon 1B media components plus 100 ng/mL human FGF-10 (Thermo Fisher Scientific, cat. 100-26), 500 nM SB-431542 (Selleckchem, cat. S1067), and gastrin (Tocris, cat. 3006).
[…]
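Further: spheroids exposed to compounds for seven days.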

Point of comparison: `CC1COCCN1c1cc(C2(O)CC3CCC(C2)O3)c2cnn(-c3ccn[nH]3)c2n1` (stereo unspecified) + Cc1[nH]c2ccc(F)cc2c1-c1nc2c3cccnc3c3ncccc3c2[nH]1, viability, T/C 20%. Against it:
- C=CCn1c(=O)c2cnc(Nc3ccc(N4CCN(C)CC4)cc3)nc2n1-c1cccc(C(C)(C)O)n1 + CN(C)c1ccc(Nc2c3ccc(NC(=O)CCN4CCCC4)cc3nc3cc(NC(=O)CCN4CCCC4)ccc23)cc1 — lower, 15.8%
- O=C(c1cc(Cc2n[nH]c(=O)c3ccccc23)ccc1F)N1CCN(C(=O)C2CC2)CC1 + Cc1[nH]c2ccc(F)cc2c1-c1nc2c3cccnc3c3ncccc3c2[nH]1 — higher, 91.7%

Same assay, conditions: second compound 0.316 µM; first compound 3.16 µM; hits give low values; spheroids with HUVEC and MSC

Point of comparison: `C=CCn1c(=O)c2cnc(Nc3ccc(N4CCN(C)CC4)cc3)nc2n1-c1cccc(C(C)(C)O)n1` + CN(C)c1ccc(Nc2c3ccc(NC(=O)CCN4CCCC4)cc3nc3cc(NC(=O)CCN4CCCC4)ccc23)cc1, viability, T/C 6.5%. Against it:
- CC1COCCN1c1cc(C2(O)CC3CCC(C2)O3)c2cnn(-c3ccn[nH]3)c2n1 (stereo unspecified) + Cc1[nH]c2ccc(F)cc2c1-c1nc2c3cccnc3c3ncccc3c2[nH]1 — higher, 21.6%
- O=C(c1cc(Cc2n[nH]c(=O)c3ccccc23)ccc1F)N1CCN(C(=O)C2CC2)CC1 + Cc1[nH]c2ccc(F)cc2c1-c1nc2c3cccnc3c3ncccc3c2[nH]1 — higher, 77.6%

Same assay, conditions: second compound 0.316 µM; first compound 10 µM; hits give low values; spheroids with HUVEC and MSC

Point of comparison: `CC1COCCN1c1cc(C2(O)CC3CCC(C2)O3)c2cnn(-c3ccn[nH]3)c2n1` (stereo unspecified) + Cc1[nH]c2ccc(F)cc2c1-c1nc2c3cccnc3c3ncccc3c2[nH]1, viability, T/C 13.5%. Against it:
- C=CCn1c(=O)c2cnc(Nc3ccc(N4CCN(C)CC4)cc3)nc2n1-c1cccc(C(C)(C)O)n1 + CN(C)c1ccc(Nc2c3ccc(NC(=O)CCN4CCCC4)cc3nc3cc(NC(=O)CCN4CCCC4)ccc23)cc1 — lower, 9.33%
- O=C(c1cc(Cc2n[nH]c(=O)c3ccccc23)ccc1F)N1CCN(C(=O)C2CC2)CC1 + Cc1[nH]c2ccc(F)cc2c1-c1nc2c3cccnc3c3ncccc3c2[nH]1 — higher, 58.1%

Same assay, conditions: second compound 1 µM; first compound 0.0316 µM; hits give low values; spheroids with HUVEC and MSC

Point of comparison: `O=C(c1cc(Cc2n[nH]c(=O)c3ccccc23)ccc1F)N1CCN(C(=O)C2CC2)CC1` + Cc1[nH]c2ccc(F)cc2c1-c1nc2c3cccnc3c3ncccc3c2[nH]1, viability, T/C 97.2%. Against it:
- C=CCn1c(=O)c2cnc(Nc3ccc(N4CCN(C)CC4)cc3)nc2n1-c1cccc(C(C)(C)O)n1 + CN(C)c1ccc(Nc2c3ccc(NC(=O)CCN4CCCC4)cc3nc3cc(NC(=O)CCN4CCCC4)ccc23)cc1 — lower, 82.9%
- CC1COCCN1c1cc(C2(O)CC3CCC(C2)O3)c2cnn(-c3ccn[nH]3)c2n1 (stereo unspecified) + Cc1[nH]c2ccc(F)cc2c1-c1nc2c3cccnc3c3ncccc3c2[nH]1 — lower, 93.5%

Same assay, conditions: second compound 1 µM; first compound 0.1 µM; hits give low values; spheroids with HUVEC and MSC

Point of comparison: `O=C(c1cc(Cc2n[nH]c(=O)c3ccccc23)ccc1F)N1CCN(C(=O)C2CC2)CC1` + Cc1[nH]c2ccc(F)cc2c1-c1nc2c3cccnc3c3ncccc3c2[nH]1, viability, T/C 99.8%. Against it:
- C=CCn1c(=O)c2cnc(Nc3ccc(N4CCN(C)CC4)cc3)nc2n1-c1cccc(C(C)(C)O)n1 + CN(C)c1ccc(Nc2c3ccc(NC(=O)CCN4CCCC4)cc3nc3cc(NC(=O)CCN4CCCC4)ccc23)cc1 — lower, 89.5%
- CC1COCCN1c1cc(C2(O)CC3CCC(C2)O3)c2cnn(-c3ccn[nH]3)c2n1 (stereo unspecified) + Cc1[nH]c2ccc(F)cc2c1-c1nc2c3cccnc3c3ncccc3c2[nH]1 — lower, 58.1%

Same assay, conditions: second compound 1 µM; first compound 0.316 µM; hits give low values; spheroids with HUVEC and MSC

Point of comparison: `O=C(c1cc(Cc2n[nH]c(=O)c3ccccc23)ccc1F)N1CCN(C(=O)C2CC2)CC1` + Cc1[nH]c2ccc(F)cc2c1-c1nc2c3cccnc3c3ncccc3c2[nH]1, viability, T/C 87.5%. Against it:
- C=CCn1c(=O)c2cnc(Nc3ccc(N4CCN(C)CC4)cc3)nc2n1-c1cccc(C(C)(C)O)n1 + CN(C)c1ccc(Nc2c3ccc(NC(=O)CCN4CCCC4)cc3nc3cc(NC(=O)CCN4CCCC4)ccc23)cc1 — lower, 55.6%
- CC1COCCN1c1cc(C2(O)CC3CCC(C2)O3)c2cnn(-c3ccn[nH]3)c2n1 (stereo unspecified) + Cc1[nH]c2ccc(F)cc2c1-c1nc2c3cccnc3c3ncccc3c2[nH]1 — lower, 30.6%

Same assay, conditions: second compound 1 µM; first compound 1 µM; hits give low values; spheroids with HUVEC and MSC

Point of comparison: `C=CCn1c(=O)c2cnc(Nc3ccc(N4CCN(C)CC4)cc3)nc2n1-c1cccc(C(C)(C)O)n1` + CN(C)c1ccc(Nc2c3ccc(NC(=O)CCN4CCCC4)cc3nc3cc(NC(=O)CCN4CCCC4)ccc23)cc1, viability, T/C 11.3%. Against it:
- CC1COCCN1c1cc(C2(O)CC3CCC(C2)O3)c2cnn(-c3ccn[nH]3)c2n1 (stereo unspecified) + Cc1[nH]c2ccc(F)cc2c1-c1nc2c3cccnc3c3ncccc3c2[nH]1 — higher, 19.9%
- O=C(c1cc(Cc2n[nH]c(=O)c3ccccc23)ccc1F)N1CCN(C(=O)C2CC2)CC1 + Cc1[nH]c2ccc(F)cc2c1-c1nc2c3cccnc3c3ncccc3c2[nH]1 — higher, 88%

Same assay, conditions: second compound 1 µM; first compound 3.16 µM; hits give low values; spheroids with HUVEC and MSC

Point of comparison: `O=C(c1cc(Cc2n[nH]c(=O)c3ccccc23)ccc1F)N1CCN(C(=O)C2CC2)CC1` + Cc1[nH]c2ccc(F)cc2c1-c1nc2c3cccnc3c3ncccc3c2[nH]1, viability, T/C 75.8%. Against it:
- C=CCn1c(=O)c2cnc(Nc3ccc(N4CCN(C)CC4)cc3)nc2n1-c1cccc(C(C)(C)O)n1 + CN(C)c1ccc(Nc2c3ccc(NC(=O)CCN4CCCC4)cc3nc3cc(NC(=O)CCN4CCCC4)ccc23)cc1 — lower, 7.68%
- CC1COCCN1c1cc(C2(O)CC3CCC(C2)O3)c2cnn(-c3ccn[nH]3)c2n1 (stereo unspecified) + Cc1[nH]c2ccc(F)cc2c1-c1nc2c3cccnc3c3ncccc3c2[nH]1 — lower, 21.8%

Same assay, conditions: second compound 1 µM; first compound 10 µM; hits give low values; spheroids with HUVEC and MSC

Point of comparison: `CC1COCCN1c1cc(C2(O)CC3CCC(C2)O3)c2cnn(-c3ccn[nH]3)c2n1` (stereo unspecified) + Cc1[nH]c2ccc(F)cc2c1-c1nc2c3cccnc3c3ncccc3c2[nH]1, viability, T/C 13.2%. Against it:
- C=CCn1c(=O)c2cnc(Nc3ccc(N4CCN(C)CC4)cc3)nc2n1-c1cccc(C(C)(C)O)n1 + CN(C)c1ccc(Nc2c3ccc(NC(=O)CCN4CCCC4)cc3nc3cc(NC(=O)CCN4CCCC4)ccc23)cc1 — lower, 9.81%
- O=C(c1cc(Cc2n[nH]c(=O)c3ccccc23)ccc1F)N1CCN(C(=O)C2CC2)CC1 + Cc1[nH]c2ccc(F)cc2c1-c1nc2c3cccnc3c3ncccc3c2[nH]1 — higher, 65.5%

Same assay, conditions: second compound 3.16 µM; first compound 0.0316 µM; hits give low values; spheroids with HUVEC and MSC

Point of comparison: `CC1COCCN1c1cc(C2(O)CC3CCC(C2)O3)c2cnn(-c3ccn[nH]3)c2n1` (stereo unspecified) + Cc1[nH]c2ccc(F)cc2c1-c1nc2c3cccnc3c3ncccc3c2[nH]1, viability, T/C 88.5%. Against it:
- C=CCn1c(=O)c2cnc(Nc3ccc(N4CCN(C)CC4)cc3)nc2n1-c1cccc(C(C)(C)O)n1 + CN(C)c1ccc(Nc2c3ccc(NC(=O)CCN4CCCC4)cc3nc3cc(NC(=O)CCN4CCCC4)ccc23)cc1 — lower, 85.2%
- O=C(c1cc(Cc2n[nH]c(=O)c3ccccc23)ccc1F)N1CCN(C(=O)C2CC2)CC1 + Cc1[nH]c2ccc(F)cc2c1-c1nc2c3cccnc3c3ncccc3c2[nH]1 — lower, 87.4%

Same assay, conditions: second compound 3.16 µM; first compound 0.1 µM; hits give low values; spheroids with HUVEC and MSC

Work on `C=CCn1c(=O)c2cnc(Nc3ccc(N4CCN(C)CC4)cc3)nc2n1-c1cccc(C(C)(C)O)n1` + CN(C)c1ccc(Nc2c3ccc(NC(=O)CCN4CCCC4)cc3nc3cc(NC(=O)CCN4CCCC4)ccc23)cc1 yielded a viability, T/C of 83.2%.
